For this test, the target named is T1, human P2Y12 receptor (Homo sapiens, UniProt Q9H244).
T1 construct: expressed in transfected cells; host or cells: CHO cells
T1 sequence (Q9H244 whole entry): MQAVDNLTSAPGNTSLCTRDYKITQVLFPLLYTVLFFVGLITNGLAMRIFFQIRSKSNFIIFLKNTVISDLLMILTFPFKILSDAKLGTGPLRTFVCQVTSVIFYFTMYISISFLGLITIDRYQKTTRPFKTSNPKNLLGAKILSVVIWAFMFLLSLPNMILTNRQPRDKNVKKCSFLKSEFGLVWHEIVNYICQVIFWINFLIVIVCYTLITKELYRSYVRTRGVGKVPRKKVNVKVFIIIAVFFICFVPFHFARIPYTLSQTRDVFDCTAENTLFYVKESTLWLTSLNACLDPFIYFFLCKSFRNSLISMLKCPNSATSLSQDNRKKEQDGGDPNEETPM
Briefly: P2Y12 receptor binding assay. The note with it: CHO cells with recombinant expression of the human P2Y12 receptor; tritium-labeled 2-methyl-S-ADP; RT, 2 hours. As for the experimental part:
P2Y12 Receptor Binding Assay
Chinese Hamster Ovary (CHO) cells with recombinant expression of the human P2Y12 receptor were cultured in 24 well cell-culture plates. Cells were washed three times with binding buffer (50 mM Tris pH 7.4, 100 mM NaCl, 1 mM EDTA, 0.5% BSA). The cells were then incubated with 0.5 ml per well binding buffer containing tritium-labeled 2-methyl-thio-adenosine 5′-diphosphate (2-methyl-S-ADP) (between 100′000 and 300′000 dpm per well) and various concentrations of test compounds. After incubation at RT for 2 hours, cells were washed three times with binding buffer. Then, cells were solubilized by addition of 0.5 ml solubilization buffer (SDS, NaOH, EDTA). The content of each well was then transferred into beta-counter vials and 2.0 ml of Ultima Gold Scintillation liquid was added.
`CCCCOC(=O)N1CCN(C(=O)CNC(=O)c2nc(-c3ccccc3)sc2CCC(=O)OCC)CC1` [Example 32, 4-(2-{[5-(2-Ethoxycarbonyl-ethyl)-2-phenyl-thiazole-4-carbonyl]-amino}-acetyl)-piperazine-1-carboxylic acid butyl ester]: the IC50 – broadly, the point on the concentration scale where inhibition reaches its midpoint – was found to be 157 nM. Then `CCCCOC(=O)N1CCN(C(=O)[C@H](CP(=O)(O)O)NC(=O)c2csc(-c3ccccc3)n2)CC1` [Example 9, 4-{(R)-2-[(2-Phenyl-thiazole-4-carbonyl)-amino]-3-phosphono-propionyl}-piperazine-1-carboxylic acid butyl ester], with 2 nM. Then `CCCCOC(=O)N1CCN(C(=O)[C@H](CCC(=O)O)NC(=O)c2nc(-c3ccccc3)c(Br)s2)CC1` [Example 56, 4-{(S)-2-[(5-Bromo-4-phenyl-thiazole-2-carbonyl)-amino]-4-carboxy-butyryl}-piperazine-1-carboxylic acid butyl ester], with 45 nM; and `CCCCOC(=O)N1CCN(C(=O)[C@H](CCC(=O)O)NC(=O)c2nc(-c3ccccc3)sc2N2CCOCC2)CC1` [Example 23, 4-{(S)-4-Carboxy-2-[(5-morpholin-4-yl-2-phenyl-thiazole-4-carbonyl)-amino]-butyryl}-piperazine-1-carboxylic acid butyl ester], with 39 nM; and `CCCCOC(=O)N1CCN(C(=O)CNC(=O)c2nc(-c3ccccc3)sc2C=CCOC)CC1` [Example 34, 4-(2-{[5-(3-Methoxy-propenyl)-2-phenyl-thiazole-4-carbonyl]-amino}-acetyl)-piperazine-1-carboxylic acid butyl ester], with 85 nM. Then `CCCCOC(=O)N1CCN(C(=O)[C@H](CCC(=O)OC(C)(C)C)NC(=O)c2nc(-c3ccccc3)sc2Br)CC1` [Example 14, 4-{(S)-2-[(5-Bromo-2-phenyl-thiazole-4-carbonyl)-amino]-4-tert-butoxycarbonyl-butyryl}-piperazine-1-carboxylic acid butyl ester], with 1220 nM; and `CCCCOC(=O)N1CCN(C(=O)[C@H](CCC(=O)O)NC(=O)c2nc(-c3ccccc3)sc2/C=C/COC)CC1` [Example 21, 4-((S)-4-Carboxy-2-{[5-((E)-3-methoxy-propenyl)-2-phenyl-thiazole-4-carbonyl]-amino}-butyryl)-piperazine-1-carboxylic acid butyl ester], with 19 nM. In the case of `CCCCOC(=O)N1CCN(C(=O)[C@H](CO)NC(=O)c2nc(-c3ccccc3)sc2Br)CC1` [Example 37, 4-{(S)-2-[(5-Bromo-2-phenyl-thiazole-4-carbonyl)-amino]-3-hydroxy-propionyl}-piperazine-1-carboxylic acid butyl ester], the IC50 amounted to 696 nM. Take `CCCCOC(=O)N1CCN(C(=O)CNC(=O)c2nc(-c3ccccc3)c(/C=C/COC)s2)CC1` [Example 51, 4-(2-{[5-((E)-3-Methoxy-propenyl)-4-phenyl-thiazole-2-carbonyl]-amino}-acetyl)-piperazine-1-carboxylic acid butyl ester]: the IC50 was 380 nM. Then `CCCCOC(=O)N1CCN(C(=O)[C@H](Cc2ccc(P(=O)(O)O)cc2)NC(=O)c2csc(-c3ccccc3)n2)CC1` [Example 11, 4-[(S)-2-[(2-Phenyl-thiazole-4-carbonyl)-amino]-3-(4-phosphono-phenyl)-propionyl]-piperazine-1-carboxylic acid butyl ester], with 1 nM; and `CCCCOC(=O)N1CCN(C(=O)[C@H](CCC(=O)O)NC(=O)c2nc(-c3ccccc3)sc2/C=C/C(=O)O)CC1` [Example 19, 4-((S)-4-Carboxy-2-{[5-((E)-2-carboxy-vinyl)-2-phenyl-thiazole-4-carbonyl]-amino}-butyryl)-piperazine-1-carboxylic acid butyl ester], with 6 nM. In the case of `CCCCOC(=O)N1CCN(C(=O)[C@H](CCC(=O)O)NC(=O)c2csc(-c3ccccc3OC)n2)CC1` [Example 5, 4-((S)-4-Carboxy-2-{[2-(2-methoxy-phenyl)-thiazole-4-carbonyl]-amino}-butyryl)-piperazine-1-carboxylic acid butyl ester], the IC50 came to 464 nM.

Regarding `CCCCOC(=O)N1CCN(C(=O)[C@H](CCC(=O)O)NC(=O)c2csc(-c3ccccc3)n2)CC1` [Example 7, 4-{(S)-4-Carboxy-2-[(2-phenyl-thiazole-4-carbonyl)-amino]-butyryl}-piperazine-1-carboxylic acid butyl ester], the IC50 is 16 nM.

For `CCCCOC(=O)N1CCN(C(=O)[C@H](CP(=O)(O)O)NC(=O)c2nc(-c3ccccc3)c(-c3ccccc3)s2)CC1` [Example 49, 4-{(R)-2-[(4,5-Diphenyl-thiazole-2-carbonyl)-amino]-3-phosphono-propionyl}-piperazine-1-carboxylic acid butyl ester], the IC50 was 152 nM.

Regarding `CCCCCCN(C)c1sc(C(=O)NCC(=O)N2CCN(C(=O)OCCCC)CC2)nc1-c1ccccc1` [Example 60, 4-(2-{[5-(Hexyl-methyl-amino)-4-phenyl-thiazole-2-carbonyl]-amino}-acetyl)-piperazine-1-carboxylic acid butyl ester], the IC50 stood at 1560 nM. Turning to `CCCCOC(=O)N1CCN(C(=O)CNC(=O)c2nc(-c3ccccc3)sc2CCCOC)CC1` [Example 35, 4-(2-{[5-(3-Methoxy-propyl)-2-phenyl-thiazole-4-carbonyl]-amino}-acetyl)-piperazine-1-carboxylic acid butyl ester], the 50% inhibitory concentration (IC50) was determined as 99 nM. Turning to `CCCCOC(=O)N1CCN(C(=O)CNC(=O)c2nc(-c3ccccc3)c(CCCOC)s2)CC1` [Example 52, 4-(2-{[5-(3-Methoxy-propyl)-4-phenyl-thiazole-2-carbonyl]-amino}-acetyl)-piperazine-1-carboxylic acid butyl ester], the IC50 came out at 743 nM. Then `CCCCOC(=O)N1CCN(C(=O)CNC(=O)c2csc(-c3ccccc3)n2)CC1` [Example 26, 4-{2-[(2-Phenyl-thiazole-4-carbonyl)-amino]-acetyl}-piperazine-1-carboxylic acid butyl ester], with 94 nM; and `CCCCOC(=O)N1CCN(C(=O)[C@H](CCC(=O)O)NC(=O)c2csc(-c3ccccc3C)n2)CC1` [Example 6, 4-{(S)-4-Carboxy-2-[(2-o-tolyl-thiazole-4-carbonyl)-amino]-butyryl}-piperazine-1-carboxylic acid butyl ester], with 334 nM; and `CCCCOC(=O)N1CCN(C(=O)CNC(=O)c2nc(-c3ccccc3)sc2NCCCOC)CC1` [Example 28, 4-(2-{[5-(3-Methoxy-propylamino)-2-phenyl-thiazole-4-carbonyl]-amino}-acetyl)-piperazine-1-carboxylic acid butyl ester], with 47 nM. For `CCCCOC(=O)N1CCN(C(=O)[C@H](CP(=O)(OCC)OCC)NC(=O)c2nc(-c3ccccc3)sc2N2CCN(C)CC2)CC1` [Example 44, 4-((R)-3-(Diethoxy-phosphoryl)-2-{[5-(4-methyl-piperazin-1-yl)-2-phenyl-thiazole-4-carbonyl]-amino}-propionyl)-piperazine-1-carboxylic acid butyl ester] the value was 4180 nM; for `CCCCOC(=O)N1CCN(C(=O)[C@H](CP(=O)(O)O)NC(=O)c2nc(-c3ccccc3)c(Br)s2)CC1` [Example 48, 4-{(R)-2-[(5-Bromo-4-phenyl-thiazole-2-carbonyl)-amino]-3-phosphono-propionyl}-piperazine-1-carboxylic acid butyl ester], 6 nM; for `CCCCOC(=O)N1CCN(C(=O)[C@@H](NC(=O)c2csc(-c3ccccc3)n2)C(C)C)CC1` [Example 36, 4-{(S)-3-Methyl-2-[(2-phenyl-thiazole-4-carbonyl)-amino]-butyryl}-piperazine-1-carboxylic acid butyl ester], 104 nM. For `CCCCOC(=O)N1CCN(C(=O)[C@H](CCC(=O)O)NC(=O)c2nc(-c3ccccc3)sc2CCCOC)CC1` [Example 22, 4-((S)-4-Carboxy-2-{[5-(3-methoxy-propyl)-2-phenyl-thiazole-4-carbonyl]-amino}-butyryl)-piperazine-1-carboxylic acid butyl ester] the value was 28 nM; for `CCCCOC(=O)N1CCN(C(=O)[C@H](CCC(=O)O)NC(=O)c2nc(-c3ccccc3)sc2N2CCCC2)CC1` [Example 24, 4-{(S)-4-Carboxy-2-[(2-phenyl-5-pyrrolidin-1-yl-thiazole-4-carbonyl)-amino]-butyryl}-piperazine-1-carboxylic acid butyl ester], 7 nM. Consider `CCCCOC(=O)N1CCN(C(=O)[C@H](CP(=O)(O)O)NC(=O)c2nc(-c3ccccc3)sc2N(C)CCCC)CC1` [Example 47, 4-((R)-2-{[5-(Butyl-methyl-amino)-2-phenyl-thiazole-4-carbonyl]-amino}-3-phosphono-propionyl)-piperazine-1-carboxylic acid butyl ester], for which the IC50 worked out at 3 nM. In the case of `CCCCOC(=O)N1CCN(C(=O)CNC(=O)c2nc(-c3ccccc3)sc2NCCC(=O)OCC)CC1` [Example 62, 4-(2-{[5-(2-Ethoxycarbonyl-ethylamino)-2-phenyl-thiazole-4-carbonyl]-amino}-acetyl)-piperazine-1-carboxylic acid butyl ester], the IC50 was found to be 134 nM. For `CCOC(=O)N1CCN(C(=O)[C@H](CCC(=O)O)NC(=O)c2csc(-c3ccccc3)n2)CC1` [Example 2, 4-{(S)-4-Carboxy-2-[(2-phenyl-thiazole-4-carbonyl)-amino]-butyryl}-piperazine-1-carboxylic acid ethyl ester] the value was 246 nM.
